Patent US5252562A, “Acetohydroxamic compound and complexes pharmaceutical compositions containing them and processes of preparation and use” (Gruenenthal GmbH, priority 1991, dated 1993)
Converted amounts (≈) assume the structure as drawn.

How the values were obtained:
[1] = tested on: isolated tracheal strips of guinea pigs; assay: anti-anaphylactic effect: ovalbumin-induced anaphylactic constrictions of isolated tracheal strips; assay type: cell-based, guinea pig; conditions: Cavia porcellus; tracheal strips of actively sensitized guinea pigs, with mepyramine and indomethacin, 37° C.; Example 3 based on the complexed N-hydroxy-N-(thien-3-yl)methyl-acetamide content; read-out: IC50-value, inhibition of 50% of the anaphylactic constrictions
Description: The anti-anaphylactic effect of N-hydroxy-[…])methyl-acetamide was tested using an in vitro model. […] The organs were connected to isometric force transducers. After incubation with mepyramine (elimination of histamine) and indomethacin (inhibition of cyclooxygenase resulting in an increase of the anaphylactic reaction) ovalbumin was added to the organ bath in cumulatively increasing concentrations. The resulting anaphylactic constrictions were inhibited by N-hydroxy-[…])methyl-acetamide which was added to the organ bath before the anaphylactic constrictions were elicited.

5 lipoxygenase = target: T1, 5 lipoxygenase (Homo sapiens, UniProt P09917); assay: inhibition of 5 lipoxygenase in human blood (A23187-induced iLTB4 formation, RIA); assay type: cell-based; conditions: heparinized human blood, A23187 15 μg/ml, 30 minutes at 37° C., iLTB4 by RIA; read-out: IC50-value, concentration causing an inhibition of 50% of 5 lipoxygenase
T1 construct: endogenous in cells; host or cells: freshly drawn, heparinized human whole blood (blood leukocytes; the cell type is own knowledge)
T1 sequence (P09917 1-674): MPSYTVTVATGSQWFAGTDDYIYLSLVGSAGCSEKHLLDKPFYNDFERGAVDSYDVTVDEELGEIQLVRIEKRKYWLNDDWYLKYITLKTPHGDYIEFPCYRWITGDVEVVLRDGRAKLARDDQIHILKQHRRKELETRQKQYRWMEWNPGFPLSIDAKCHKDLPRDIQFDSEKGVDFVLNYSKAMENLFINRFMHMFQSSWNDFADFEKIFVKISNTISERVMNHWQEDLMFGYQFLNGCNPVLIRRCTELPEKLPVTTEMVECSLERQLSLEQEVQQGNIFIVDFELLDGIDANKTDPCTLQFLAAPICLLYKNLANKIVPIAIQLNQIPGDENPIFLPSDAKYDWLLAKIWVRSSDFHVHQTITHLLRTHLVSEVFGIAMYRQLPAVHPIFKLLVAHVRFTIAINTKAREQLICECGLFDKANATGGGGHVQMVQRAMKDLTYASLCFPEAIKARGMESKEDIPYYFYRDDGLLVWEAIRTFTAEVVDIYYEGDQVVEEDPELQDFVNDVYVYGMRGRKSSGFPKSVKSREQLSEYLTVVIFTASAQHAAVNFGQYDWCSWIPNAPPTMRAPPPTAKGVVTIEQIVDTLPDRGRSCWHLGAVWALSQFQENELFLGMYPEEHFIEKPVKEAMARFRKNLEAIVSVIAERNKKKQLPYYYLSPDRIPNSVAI
Description: To determine the inhibition of 5 lipoxygenase, aliquots of freshly drawn, heparinized human blood were incubated at 37° C. in a water bath with addition of either N Hydroxy-N-(thien-3-yl)methyl-acetamide in different concentrations or a solvent. After 5 minutes the calcium ionophore A23187 was added to an end concentration of 15 μg/ml blood, and the incubation was continued for 30 minutes at 37° C. Then the samples were centrifuged to collect the cell free plasma. The content of the immunoreactive leucotriene B4 (iLTB4), in each sample was determined by radioimmunoassay "RIA" (^3 H-LTB4 -RIA, Amersham) with reference to a LTB4 standard curve and was calculated as ng iLTB4 /ml plasma. The percentage inhibition caused by the acetohydroxamic acid compound of formula I at various concentrations was calculated in comparison to the aliquots incubated with solvent only. N-hydroxy-N-(thien-3-yl)methyl-acetamide has an IC50 -value, i.e. the concentration causing an inhibition of 50% of 5 lipoxygenase, of 0.3 μmolar.

guinea pigs = assay: antiasthmatic effect: ovalbumin-induced bronchoconstriction in anesthetized, ventilated, passively sensitized guinea pigs (Konzett-Roessler); assay type: in vivo, guinea pig
Description: The antiasthmatic effect of the compound according to the invention was tested in anesthetized and ventilated guinea pigs. In order to induce an asthmatic reaction, the animals were passively sensitized with a single intraperitoneal injection of antiovalbumin serum. After 48 hours the asthmatic reaction was elicited by intravenous challenge with 0.2 mg/kg of ovalbumin. The immediately resulting bronchoconstriction was measured as an increase in overflow according to the Konzett-Roessler method for a period of 10 minutes (Naunyn Schiedeberg's Arch. Exp. Path. Pharma. Vol. 195, 71-74 (1940)). Effects caused by histamine, serotonin and sympathic counterreaction were eliminated by intravenous pretreatment with 2.15 mg/kg of mepyramine, […] of propranolol, 4.64 mg/kg of atropine and 1 mg/kg of methysergide, all given 5 minutes before challenge. N-Hydroxy-N-(thien-3-yl)methyl-acetamide was orally administered 60 minutes before, intravenously administered 30 minutes before, and locally administered 2 minutes before the administration of ovalbumin.

cell-free 5 lipoxygenase = assay: 5 lipoxygenase activity polarographically measured in 10,000×g supernatant of homogenized rat basophilic leukemia cells; release from complex; assay type: biochemical; conditions: RBL 10,000×g supernatant, arachidonic acid 75 μM, 5 minutes at 35° C.; complex of Example 3 versus free compound
Description: To determine the rate and the extent of the release of N hydroxy-[…])methyl-acetamide from the complex prepared according to Example 3, the 5 lipoxygenase activity of cell-free 5 lipoxygenase was polarographically measured with oxygen electrodes in 10,000×g supernatant from homogenized rat basophilic leukemia cells (RBL i cells). After incubation of the 10,000×g supernatant with arachidonic acid (75 μM), adenosine triphosphate (4 mM), glutathione (4 mM), and either N hydroxy-[…])methyl-acetamide or a solvent for 5 minutes at 35° C., the lipoxygenase reaction was initiated by addition of calcium chloride and plotted simultaneously. The evaluation included the duration of the lag-phase as well as the initial rate of the reaction after the lag-phase. […] A significant amount of the acetohydroxamic acid compound is fully available in the biological test system even when the compound is originally administered in the form of a complex.

toxicity = conditions: observed only at far higher doses than therapeutic or prophylactic doses
cyclooxygenase = target: T2, cyclooxygenase (Ovis aries, UniProt P05979); assay: activity of cyclooxygenase in sheep seminal vesicle microsomes ([14C]-arachidonic acid, TLC); assay type: biochemical; conditions: potassium phosphate buffer pH 7.0
T2 sequence (P05979 25-600): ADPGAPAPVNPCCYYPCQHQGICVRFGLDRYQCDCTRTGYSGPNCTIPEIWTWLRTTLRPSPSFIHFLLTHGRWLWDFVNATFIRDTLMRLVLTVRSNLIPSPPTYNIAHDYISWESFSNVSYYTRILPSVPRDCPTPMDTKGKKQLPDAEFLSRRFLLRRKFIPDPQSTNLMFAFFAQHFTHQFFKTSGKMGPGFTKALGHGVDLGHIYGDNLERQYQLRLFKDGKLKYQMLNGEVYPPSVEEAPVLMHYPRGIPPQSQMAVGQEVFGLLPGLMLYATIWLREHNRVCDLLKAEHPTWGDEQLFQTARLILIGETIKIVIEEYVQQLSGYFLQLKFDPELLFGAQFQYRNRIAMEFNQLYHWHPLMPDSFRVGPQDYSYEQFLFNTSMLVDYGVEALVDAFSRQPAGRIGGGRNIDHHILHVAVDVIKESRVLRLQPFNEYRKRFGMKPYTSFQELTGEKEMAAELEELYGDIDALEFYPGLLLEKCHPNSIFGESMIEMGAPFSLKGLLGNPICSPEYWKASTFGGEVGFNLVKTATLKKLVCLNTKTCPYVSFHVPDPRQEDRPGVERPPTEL
Description: The effect of the acetohydroxamic acid compound of formula I on the activity of cyclooxygenase was tested using a suspension of sheep seminal vesicle microsomes in […] of potassium phosphate buffer of pH 7.0 which was incubated either with N-hydroxy-N-(thien-3-yl)methyl-acetamide or with a solvent only and [^14 C]-arachidonic acid. The IC50 values, i.e. the concentrations causing an inhibition of 50% of cyclooxygenase were determined by thin layer chromatography using a TLC-linear-analyzer.

5-lipoxygenase = assay: ex vivo iLTB4-formation in whole blood of rats after oral administration (bioavailability); parameters: species or system rat (Wistar strain, male)
Description: The bioavailability of the compound of formula I was characterized by means of an ex vivo biochemical assessment method described by Tateson et al. in Brit. J. Pharmacol. 528 (1988): N-Hydroxy-N-(thien-3-yl)methyl-acetamide was orally administered in a dose of 21.5 mg/kg to male rats (Wistar strain). One hour later blood was taken from the rats in lethal CO2 -narcosis. Aliquots of the blood were incubated for 30 minutes at 37° C. in a water bath with addition of calcium ionophore A 23 187 to an end concentration of 15 μg/ml. At the end of the incubation the samples were centrifuged to collect the cell free plasma. The concentration of the immunoreactive LTB4 (iLTB4 ng/ml) in each plasma sample was determined by radioimmunoassay (^3 H-LTB4 -RIA, Amersham) by means of a LTB4 -standard curve in diluted rat plasma. To determine the percent inhibition of ex vivo iLTB4 -formation in whole blood of rats treated with the compound of formula I, rats orally treated with an appropriate vehicle solution were included in all experiments, aliquots of their blood were run in parallel and were processed in the same manner as described. The mean iLTB4 formation per ml plasma of these vehicle treated rats served as the 100% value of normal 5-lipoxygenase activity. The percent inhibition of the ex vivo iLTB4 -formation after oral administration of the compound of formula I was calculated according to the following formula: […]
where Q represents the mean iLTB4 content in ng […] per ml plasma of the rats treated with the compound of formula I and C represents the mean iLTB4 content in ng iLTB4 per ml plasma of rats treated only with the vehicle.

solubility = assay type: physicochemical

## CC(=O)N(O)Cc1ccsc1 [Example 1, N-hydroxy-N-(thien-3-yl)methyl-acetamide]
[1]
  IC50: 10.2 µM
5 lipoxygenase
  IC50: 0.3 µM
Guinea pigs; 21.5 mg/kg oral, 60 minutes before ovalbumin
  inhibition of bronchoconstriction: 42%
Guinea pigs; oral 21.5 mg/kg (free) versus intravenous 21.5 mg/kg (complex), guinea pigs
  resorption of the acetohydroxamic acid compound: high resorption
cell-free 5 lipoxygenase
  inhibition of the 5 lipoxygenase reaction: comparable effects
  prolongation of the lag-phase of the 5 lipoxygenase reaction: comparable effects
toxicity
  degree of toxicity: low degree of toxicity
cyclooxygenase
  IC50-values for the inhibition of cyclooxygenase compared with IC50-values for 5-lipoxygenase: significantly higher than the IC50 -values for the inhibition of 5-lipoxygenase
5-lipoxygenase; 21.5 mg/kg oral, male Wistar rats, blood taken one hour later, A23187 15 μg/ml
  percent inhibition of the ex vivo iLTB4-formation: 95%
5-lipoxygenase; oral, 21.5 mg/kg, rats, concluded from ex vivo iLTB4 inhibition
  oral availability: excellent oral availability
5-lipoxygenase; oral, rats, ex vivo iLTB4-formation, 60 min
  calculated dose with a semi-maximum inhibiting effect after oral administration: 5.6 mg/kg
solubility; organic solvent or mixture, water/ethanol 4:1 mixture
  solubility: 3000 µg/mL (≈ 17.5 mM)
solubility; phosphate buffer/ethanol 4:1, organic solvent or mixture, phosphate buffer (pH 7.4)/ethanol, 4:1 mixture
  solubility: 3000 µg/mL (≈ 17.5 mM)
